Literature values as cited in patent US20170209576A1, “DELIVERY COMPOSITIONS AND METHODS” (REGENTS OF THE UNIVERSITY OF MINNESOTA, priority 2014, published 2017).

How the values were obtained:
[1] = aqueous solution
[2] = micropipette techniques

critical micelle concentration (CMC) [1]	pKa of terminal amine group	Compound	rate of adsorption of monomers into the outer bilayer leaflet [2]
5.8 µM		1,2-Distearoyl-sn-glycero-3-phosphoethanolamine (DSPE)-PEG^2000 [DSPE-PEG^2000]	
	9.8	CCCCCCCCCCCCCCCC(=O)OCC(COP(=O)(O)OCCN)OC(=O)CCCCCCCCCCCCCCC (stereo not shown) [DPPE, dipalmitoylphosphatidylethanolamine]	
4 µM		CCCCCCCCCCCCCCCC(=O)OC[C@@H](O)COP(=O)([O-])OCC[N+](C)(C)C [MPPC, monopalmitoyl phosphatidyl choline]	0.2 s⁻¹
